Reference: PMC11051198, “Synthesis and Late-Stage Modification of (−)-Doliculide Derivatives Using Matteson’s Homologation Approach” (Marine Drugs, 2024)

Key:
HCT-116 = assay: MTT cytotoxicity assay, HCT-116; format: cell-based; conditions: HCT-116 human colon carcinoma, 5 d incubation, 37 °C, 5% CO2, DMEM + 10% FBS, mean ± SD of two independent measurements
Experimental: (§1) The cell cultures were cultivated at 37 °C under an atmosphere containing 5% CO2. Before usage, Dulbecco’s Modified Eagle Medium (DMEM) from Gibco (Thermo Fisher Scientific) was supplemented with 10% fetal bovine serum (FBS) from Gibco. Cells were used between passage 5 and 30 and were split separately for at least two passages to obtain biological repeats. Cells were washed with PBS and 0.5 mL trypsin was added before treatment. Cells were then incubated for 5 min before adding 10 mL medium containing 10% FBS. Per well, 120 µL cell suspension 5 × 10^4 cells/mL (CHO-K1, HCT-116. U-2 OS, KB3.1) or 1 × 10^5 cells/mL (HepG2) cells were seeded in transparent 96-well cell bind plate and incubated for 2 h at 37 °C and an atmosphere of 5% CO2. Each compound was tested in a serial dilution so that the starting concentration is 111 µg/mL, which is diluted by 1:3 as well as the internal solvent control prepared in DMEM with 10% FBS. After 5 d incubation at 37 °C and an atmosphere of 5% CO2, 20 μL of 5 mg/mL MTT (thiazolyl blue tetrazolium bromide) in PBS was added per well and cells were further incubated until coloration of the cells. The medium was then discarded and 100 μL 2-propanol/10 N HCl (250:1) added to the cells. The plates were analyzed by measuring the absorbance at 570 nm and 630 nm as reference using a microplate reader Infinite® 200 Pro from Tecan (Männedorf, Switzerland). Absorption is then converted to cell viability expressed as percentage relative to the respective solvent control. The calculated percentage of growth inhibition were determined by sigmoidal curve fitting using GraphPad (Boston, MA, USA) Prism software (version 10.0.2). Two independent measurements were generated for mean and standard deviation.

HepG2 = assay: MTT cytotoxicity assay, HepG2; format: cell-based; conditions: HepG2 human hepatocellular carcinoma, 5 d incubation, 37 °C, 5% CO2, DMEM + 10% FBS, mean ± SD of two independent measurements
Experimental: as §1

CHO-K1 = assay: MTT cytotoxicity assay, CHO-K1; format: cell-based; conditions: CHO-K1 mutagenized Chinese hamster ovary, 5 d incubation, 37 °C, 5% CO2, DMEM + 10% FBS, mean ± SD of two independent measurements
Experimental: as §1

HeLa-S3 cells = conditions: ref [1]; cited from earlier work
Experimental: Isolation of (−)-doliculide (Figure 1) from the Japanese sea hare, Dolabella auricularia, was first reported almost 30 years ago by Yamada et al., along with its potent cytotoxicity against HeLa-S3 cells (IC50 = 1 ng/mL). […] Due to their biological activities as anticancer agents, naturally derived cyclopeptides are interesting candidates for drug development, and so ...

KB3.1 = assay: MTT cytotoxicity assay, KB3.1; format: cell-based; conditions: KB3.1 human epidermoid carcinoma cell line, 5 d incubation, 37 °C, 5% CO2, DMEM + 10% FBS, mean ± SD of two independent measurements
Experimental: as §1

U-2 OS = assay: MTT cytotoxicity assay, U-2 OS; format: cell-based; conditions: U-2 OS human bone osteosarcoma, 5 d incubation, 37 °C, 5% CO2, DMEM + 10% FBS, mean ± SD of two independent measurements
Experimental: as §1

[1] = ≤ values: individual results varied widely, given as a range

Row | SMILES | IC50 (HCT-116; [1]) [µM] | IC50 (HepG2) [µM] | IC50 (CHO-K1) [µM] | cytotoxicity against HeLa-S3 cells, IC50 (HeLa-S3 cells) [ng/mL] | IC50 (KB3.1; [1]) [µM] | IC50 (U-2 OS; [1]) [µM] | IC50 (HCT-116) [µM] | IC50 (KB3.1) [µM] | IC50 (U-2 OS) [µM]
1 | CC(C)[C@@H]1C[C@H](O)[C@H](C)C[C@H](C)C[C@H](C)C(=O)NCC(=O)N(C)[C@H](Cc2ccc(O)c(I)c2)C(=O)O1 [A, (−)-Doliculide] | 0.0088 ± 0.0005 | 0.0164 ± 0.0042 | 0.111 ± 0.0045 | 1 | 0.038 ± 0.0099 | 0.0252 ± 0.0018 |  |  | 
2 | C[C@H]1C[C@@H](C)[C@@H](O)C[C@@H](CC#Cc2ccc([N+](=O)[O-])cc2)OC(=O)[C@@H](Cc2ccc(O)c(I)c2)N(C)C(=O)CNC(=O)[C@@H](C)C1 [Compound 10c, (3R,9S,11S,13R,14S,16R)-14-Hydroxy-3-(4-hydroxy-3-iodobenzyl)-4,9,11,13-tetramethyl-16-[3-(4-nitrophenyl)prop-2-yn-1-yl]-1-oxa-4,7-diazacyclohexadecane-2,5,8-trione] | 0.01 ± 0.003 | > 50.4 | 0.586 ± 0.205 |  | 0.098 ± 0.041 | 0.491 ± 0.095 |  |  | 
3 | C[C@H]1C[C@@H](C)[C@@H](O)C[C@@H](Cc2cn(CCOCCOCCO)nn2)OC(=O)[C@@H](Cc2ccc(O)c(I)c2)N(C)C(=O)CNC(=O)[C@@H](C)C1 [Compound 9e, (3R,9S,11S,13R,14S,16R)-14-Hydroxy-3-(4-hydroxy-3-iodobenzyl)-16-((1-(2-(2-(2-hydroxyethoxy)ethoxy)ethyl)-1H-1,2,3-triazol-4-yl)methyl)-4,9,11,13-tetramethyl-1-oxa-4,7-diazacyclohexadecane-2,5,8-trione] |  | > 47 | > 47 |  |  |  | 8.55 ± 1.14 | 10.5 ± 0.3 | 23 ± 4.4
